Measured values reported in patent US11420943B2, “Peptide derivatives and therapeutic activity thereof” (FLAMMA S.P.A., priority 2017, dated 2022).
Where two headings read alike, the source gives them in different places. Where a SMILES comes first, the peptide text is derived from it. [ ]: non-standard residue; d: D form. Aib = CC(C)(N)C(=O)O

What was measured:
[1] = reported in WO2011/080139, same test; cited from earlier work
[2] = Carbonyl-quenching activity towards HNE in vitro (residual HNE by reverse-phase chromatography); format: biochemical; settings: for ACTIVITY (CARNOSINE UNIT) 1 h / HNE CONSUMPTION (%) 1 h: 1 h incubation; for ACTIVITY (CARNOSINE UNIT) 1 h / HNE CONSUMPTION (%) 1 h / ACTIVITY (CARNOSINE UNIT) 3 h / HNE CONSUMPTION (%) 3 h: HNE 50 μM, compound 1 mM, phosphate buffer 10 mM, pH 7.4, 37° C.; for ACTIVITY (CARNOSINE UNIT) 3 h / HNE CONSUMPTION (%) 3 h: 3 h incubation
Description: (§1) The pharmacological activity of the compounds according to the invention was determined in vitro by evaluating their carbonyl-quenching activity towards 4-hydroxy nonenal (HNE), which is known for its involvement in numerous disorders. Said activity was compared with that of L-carnosine, a compound known as a carbonyl quencher in vitro but having limited metabolic stability caused by serum carnosinase. The metabolic stability of a particularly interesting compound was also evaluated in human serum after 1 and 2 hours.
The activity was evaluated one and three hours after incubation, determining the residual HNE content by reverse-phase chromatography as previously described by Aldini G. et al. [Biochem Biophys Res Commun. 2002 Nov. 15; 298 (5):699-706]. The carbonyl-quenching activity is evaluated on the basis of the percentage of HNE reacted, compared with the HNE content in the absence of the molecule to be tested.

[3] = Stability in human serum (HPLC-MS recovery); format: in vitro ADME; settings: 37° C.
Description: as §1
The samples taken from each matrix, suitably treated, were analysed by HPLC-MS, obtaining recovery after 1 h and 2 h.

NCCC(=O)N[C@H](CO)Cc1cnc[nH]1 [3-amino-N-[(1S)-2-hydroxy-1-(1H-imidazol-5-yl-methyl)ethyl]propanamide]
carbonyl-quenching activity, times greater than that of L-carnosine [1]: 1.6 times

NCCC(=O)N[C@@H](Cc1cnc[nH]1)C(=O)O [CARNOSINE, L-carnosine, reference compound]
ACTIVITY (CARNOSINE UNIT) 1 h [2]: 1.00 CARNOSINE UNIT
HNE CONSUMPTION (%) 1 h [2]: 17.05 ± 1.24%
ACTIVITY (CARNOSINE UNIT) 3 h [2]: 1.00 CARNOSINE UNIT
HNE CONSUMPTION (%) 3 h [2]: 42.66 ± 0.89%

CC(C)(N)CC(=O)N[C@@H](Cc1c[nH]cn1)C(=O)O [FLM-02-ACI, N-(3-amino-3,3-dimethylpropanoyl)-L-histidine]
ACTIVITY (CARNOSINE UNIT) 1 h [2]: 0.02 CARNOSINE UNIT
HNE CONSUMPTION (%) 1 h [2]: 0.40 ± 1.73%
ACTIVITY (CARNOSINE UNIT) 3 h [2]: 0.14 CARNOSINE UNIT
HNE CONSUMPTION (%) 3 h [2]: 6.05 ± 1.66%

CC(C)(N)CC(=O)N[C@H](CO)Cc1c[nH]cn1 [FLM-02-OLO, (S)-3-amino-N-(1-hydroxy-3-(1H-imidazol-4-yl)propan-2-yl)-3,3-dimethylpropanamide]
ACTIVITY (CARNOSINE UNIT) 1 h [2]: 0.25 CARNOSINE UNIT
HNE CONSUMPTION (%) 1 h [2]: 4.09 ± 2.61%
ACTIVITY (CARNOSINE UNIT) 3 h [2]: 0.24 CARNOSINE UNIT
HNE CONSUMPTION (%) 3 h [2]: 10.50 ± 2.24%

CC(C)(CN)C(=O)N[C@@H](Cc1c[nH]cn1)C(=O)O [FLM-04-ACI, N-(3-amino-2,2-dimethylpropanoyl)-L-histidine]
ACTIVITY (CARNOSINE UNIT) 1 h [2]: 1.76 CARNOSINE UNIT
HNE CONSUMPTION (%) 1 h [2]: 30.06 ± 4.68%
ACTIVITY (CARNOSINE UNIT) 3 h [2]: 1.51 CARNOSINE UNIT
HNE CONSUMPTION (%) 3 h [2]: 64.44 ± 4.37%

CC(C)(CN)C(=O)N[C@H](CO)Cc1c[nH]cn1 [FLM-04-OLO, (S)-3-amino-N-(1-hydroxy-3-(1H-imidazol-4-yl)propan-2-yl)-2,2-dimethylpropanamide]
ACTIVITY (CARNOSINE UNIT) 1 h [2]: 3.13 CARNOSINE UNIT
HNE CONSUMPTION (%) 1 h [2]: 52.14 ± 5.56%
ACTIVITY (CARNOSINE UNIT) 3 h [2]: 2.00 CARNOSINE UNIT
HNE CONSUMPTION (%) 3 h [2]: 86.47 ± 2.73%
carbonyl-quenching activity, times greater than that of L-carnosine ([2]; see Table I): 3.1 times
Stability in plasma (% residual amount) 1 h ([3]; 1 h): 101.78 ± 16.20%
Stability in plasma (% residual amount) 2 h ([3]; 2 h): 100.34 ± 9.46%

CC(C)(N)C(=O)N[C@@H](Cc1c[nH]cn1)C(=O)O [FLM-05-ACI, N-(2-amino-2-methylpropanoyl)-L-histidine] (H-[Aib]-His-OH)
ACTIVITY (CARNOSINE UNIT) 1 h [2]: 0.33 CARNOSINE UNIT
HNE CONSUMPTION (%) 1 h [2]: 5.58 ± 7.50%
ACTIVITY (CARNOSINE UNIT) 3 h [2]: 0.37 CARNOSINE UNIT
HNE CONSUMPTION (%) 3 h [2]: 15.84 ± 10.65%

CC(C)(N)C(=O)N[C@H](CO)Cc1c[nH]cn1 [FLM-05-OLO, (S)-2-amino-N-(1-hydroxy-3-(1H-imidazol-4-yl)propan-2-yl)-2-methylpropanamide]
ACTIVITY (CARNOSINE UNIT) 1 h [2]: 0.38 CARNOSINE UNIT
HNE CONSUMPTION (%) 1 h [2]: 6.40 ± 1.72%
ACTIVITY (CARNOSINE UNIT) 3 h [2]: 0.45 CARNOSINE UNIT
HNE CONSUMPTION (%) 3 h [2]: 19.44 ± 2.36%

NCC(F)(F)C(=O)N[C@@H](Cc1c[nH]cn1)C(=O)O [FLM-07-ACI, N-(3-amino-2,2-difluoropropanoyl)-L-histidine]
ACTIVITY (CARNOSINE UNIT) 1 h [2]: 0.46 CARNOSINE UNIT
HNE CONSUMPTION (%) 1 h [2]: 7.88 ± 5.41%
ACTIVITY (CARNOSINE UNIT) 3 h [2]: 0.69 CARNOSINE UNIT
HNE CONSUMPTION (%) 3 h [2]: 29.42 ± 6.42%

NCC(F)(F)C(=O)N[C@H](CO)Cc1c[nH]cn1 [FLM-07-OLO, (S)-3-amino-2,2-difluoro-N-(1-hydroxy-3-(1H-imidazol-4-yl)propan-2-yl)propanamide]
ACTIVITY (CARNOSINE UNIT) 1 h [2]: 1 CARNOSINE UNIT
HNE CONSUMPTION (%) 1 h [2]: 17.07 ± 1.76%
ACTIVITY (CARNOSINE UNIT) 3 h [2]: 0.82 CARNOSINE UNIT
HNE CONSUMPTION (%) 3 h [2]: 34.93 ± 0.58%

NCC1(C(=O)N[C@@H](Cc2c[nH]cn2)C(=O)O)CC1 [FLM-09-ACI]
ACTIVITY (CARNOSINE UNIT) 1 h [2]: 0.81 CARNOSINE UNIT
HNE CONSUMPTION (%) 1 h [2]: 13.70 ± 0.83%
ACTIVITY (CARNOSINE UNIT) 3 h [2]: 0.89 CARNOSINE UNIT
HNE CONSUMPTION (%) 3 h [2]: 36.11 ± 2.87%

NCC1(C(=O)N[C@H](CO)Cc2c[nH]cn2)CC1 [FLM-09-OLO, (S)-1-(aminomethyl)-N-(1-hydroxy-3-(1H-imidazol-4-yl)propan-2-yl)cyclopropanecarboxamide]
ACTIVITY (CARNOSINE UNIT) 1 h [2]: 1.55 CARNOSINE UNIT
HNE CONSUMPTION (%) 1 h [2]: 26.21 ± 1.04%
ACTIVITY (CARNOSINE UNIT) 3 h [2]: 1.45 CARNOSINE UNIT
HNE CONSUMPTION (%) 3 h [2]: 59.09 ± 1.49%

NCC1(C(=O)N[C@@H](Cc2c[nH]cn2)C(=O)O)CCC1 [FLM-10-ACI]
ACTIVITY (CARNOSINE UNIT) 1 h [2]: 1.06 CARNOSINE UNIT
HNE CONSUMPTION (%) 1 h [2]: 17.89 ± 1.97%
ACTIVITY (CARNOSINE UNIT) 3 h [2]: 1.11 CARNOSINE UNIT
HNE CONSUMPTION (%) 3 h [2]: 45.04 ± 2.94%

NCC1(C(=O)N[C@H](CO)Cc2c[nH]cn2)CCC1 [FLM-10-OLO, (S)-1-(aminomethyl)-N-(1-hydroxy-3-(1H-imidazol-4-yl)propan-2-yl)cyclobutanecarboxamide]
ACTIVITY (CARNOSINE UNIT) 1 h [2]: 2.82 CARNOSINE UNIT
HNE CONSUMPTION (%) 1 h [2]: 47.68 ± 3.02%
ACTIVITY (CARNOSINE UNIT) 3 h [2]: 2.08 CARNOSINE UNIT
HNE CONSUMPTION (%) 3 h [2]: 84.63 ± 2.70%

NCC1(C(=O)N[C@@H](Cc2c[nH]cn2)C(=O)O)CCCC1 [FLM-11-ACI]
ACTIVITY (CARNOSINE UNIT) 1 h [2]: 1.41 CARNOSINE UNIT
HNE CONSUMPTION (%) 1 h [2]: 23.82 ± 1.55%
ACTIVITY (CARNOSINE UNIT) 3 h [2]: 1.31 CARNOSINE UNIT
HNE CONSUMPTION (%) 3 h [2]: 53.54 ± 1.10%

NCC1(C(=O)N[C@H](CO)Cc2c[nH]cn2)CCCC1 [FLM-11-OLO, (S)-1-(aminomethyl)-N-(1-hydroxy-3-(1H-imidazol-4-yl)propan-2-yl)cyclopentanecarboxamide]
ACTIVITY (CARNOSINE UNIT) 1 h [2]: 2.82 CARNOSINE UNIT
HNE CONSUMPTION (%) 1 h [2]: 47.56 ± 0.69%
ACTIVITY (CARNOSINE UNIT) 3 h [2]: 2.06 CARNOSINE UNIT
HNE CONSUMPTION (%) 3 h [2]: 83.90 ± 0.33%

CC(C)(CN)C(=O)N[C@@H](Cc1c[nH]cn1)C(=O)O [FLM-12-ACI, N-(3-amino-2,2-dimethylpropanoyl)-L-histidine]
ACTIVITY (CARNOSINE UNIT) 1 h [2]: 1.58 CARNOSINE UNIT
HNE CONSUMPTION (%) 1 h [2]: 27.07 ± 9.77%
ACTIVITY (CARNOSINE UNIT) 3 h [2]: 1.20 CARNOSINE UNIT
HNE CONSUMPTION (%) 3 h [2]: 51.35 ± 9.22%

Cn1cncc1C[C@@H](CO)NC(=O)C(C)(C)CN [FLM-12-OLO, (S)-3-amino-N-(1-hydroxy-3-(1-methyl-1H-imidazol-5-yl)propan-2-yl)-2,2-dimethylpropanamide]
ACTIVITY (CARNOSINE UNIT) 1 h [2]: 2.98 CARNOSINE UNIT
HNE CONSUMPTION (%) 1 h [2]: 50.77 ± 3.84%
ACTIVITY (CARNOSINE UNIT) 3 h [2]: 1.64 CARNOSINE UNIT
HNE CONSUMPTION (%) 3 h [2]: 70.08 ± 2.98%

CC(C)(CCN)C(=O)N[C@@H](Cc1c[nH]cn1)C(=O)O [FLM-13-ACI, N-(4-amino-2,2-dimethylbutanoyl)-L-histidine]
ACTIVITY (CARNOSINE UNIT) 1 h [2]: 0.69 CARNOSINE UNIT
HNE CONSUMPTION (%) 1 h [2]: 11.77 ± 6.79%
ACTIVITY (CARNOSINE UNIT) 3 h [2]: 0.48 CARNOSINE UNIT
HNE CONSUMPTION (%) 3 h [2]: 20.43 ± 7.94%

CC(C)(CCN)C(=O)N[C@H](CO)Cc1c[nH]cn1 [FLM-13-OLO, (S)-4-amino-N-(1-hydroxy-3-(1H-imidazol-4-yl)propan-2-yl)-2,2-dimethylbutanamide]
ACTIVITY (CARNOSINE UNIT) 1 h [2]: 0.62 CARNOSINE UNIT
HNE CONSUMPTION (%) 1 h [2]: 10.54 ± 10.04%
ACTIVITY (CARNOSINE UNIT) 3 h [2]: 0.54 CARNOSINE UNIT
HNE CONSUMPTION (%) 3 h [2]: 23.05 ± 12.28%

NCC1(C(=O)N[C@@H](Cc2c[nH]cn2)C(=O)O)CCCCC1 [FLM-14-ACI]
ACTIVITY (CARNOSINE UNIT) 1 h [2]: 1.71 CARNOSINE UNIT
HNE CONSUMPTION (%) 1 h [2]: 29.10 ± 2.97%
ACTIVITY (CARNOSINE UNIT) 3 h [2]: 1.36 CARNOSINE UNIT
HNE CONSUMPTION (%) 3 h [2]: 58.03 ± 2.37%

NCC1(C(=O)N[C@H](CO)Cc2c[nH]cn2)CCCCC1 [FLM-14-OLO, (S)-1-(aminomethyl)-N-(1-hydroxy-3-(1H-imidazol-4-yl)propan-2-yl)cyclohexanecarboxamide]
ACTIVITY (CARNOSINE UNIT) 1 h [2]: 2.84 CARNOSINE UNIT
HNE CONSUMPTION (%) 1 h [2]: 48.36 ± 6.22%
ACTIVITY (CARNOSINE UNIT) 3 h [2]: 1.96 CARNOSINE UNIT
HNE CONSUMPTION (%) 3 h [2]: 83.50 ± 5.85%
